Peptide text beside a SMILES is read from it.

The term melting point denotes the temperature of the solid-liquid transition. Turning to `FC(F)(F)c1cc(-c2ccc3c(c2)OCO3)n[nH]1`, the melting point was in the range of 177 to 179 °C.
In the case of `O=C(c1ccco1)c1nn2c(nc(=O)c3ccccc32)s1`, the melting point was 325 °C.
For the compound `CCO[Si](C)(C)OCC`, the melting point is -70 °C.
In the case of `O=C(O)CNCCNCC(=O)O` it was 224 to 225 °C; in that of `CC(=O)C(CC(=O)c1ccccc1)C(=O)c1ccccc1` (configuration not stated), 90 °C; in that of `CC1=C(C)C(=O)OC1=O`, 96 °C.
For the compound `CCCCCCCCOc1ccc(C=O)cc1OCCCCCCCC`, the melting point was 54 to 56 °C.
Turning to `COc1ccc(COC(=O)NN)cc1`, the melting point worked out at 76 °C.
Turning to `CCCC(CC)c1ccccc1` (configuration not stated), the melting point is -55.4 °C.
In the case of `O=C1C(=O)N(c2ccccc2)c2ccccc21`, the melting point came to 141 °C.
Turning to `O=C(Cl)c1cc(-c2cccs2)on1`, the melting point lay within 77 to 78 °C.
In the case of `O=c1[nH]c(=O)n(C2CCC(CO)O2)cc1Br` (configuration not stated) it was 180 °C; in that of `C=CCO`, -129 °C; in that of `ClCC1C(CCl)C2(Cl)C(Cl)=C(Cl)C1(Cl)C2(Cl)Cl` (configuration not stated), 105 °C.
`COc1ccc2oc(CCC(C)=O)c(-c3ccc(C)o3)c2c1` returned a melting point of 36 °C.
With `COC(=O)c1ccc2cc[nH]c2c1`, the melting point turned out to be 79 °C.
The compound `N=C1N=C2CCC(c3ccccc3)=NN2CN1` yielded a melting point of 240 to 242 °C.
`C=C(C)C(=O)O` registered a melting point of 16 °C.
Turning to `C[C@]12CCC(=O)C=C1CC[C@@H]1[C@@H]2CC[C@@]2(C)[C@H]1CC[C@]2(O)C#Cc1ccccc1`, the melting point lay within 185 to 187 °C.
In the case of `Cc1cc(=O)oc2cc(O)cc(O)c12` it was 299 °C; in that of `OCCc1ccc2ccccc2n1`, 103 °C.
As for `CCCCCCCCCC1CCCCC1`, the melting point was -10 °C.
`CN1CCN(C2=C(Cl)C(=O)c3ccccc3C2=O)CC1` showed a melting point of 120 °C.
`Brc1ccc(I)cn1` had a melting point of 124 °C.
In the case of `Cc1ccc2ccc3ccc(C)nc3c2n1`, the melting point came out at 160 °C.
For the compound `CC1CCC(C)(C(=O)COC(=O)c2ccccc2)C1(C)C` (configuration not stated), the melting point amounted to 82 °C.
As to `Clc1c(Cl)c(Cl)c2nccnc2c1Cl`, the melting point was 190 °C.
Regarding `CCCCNC(=O)n1cc(F)c(=O)[nH]c1=O`, the melting point stood at 136 °C.
As for `Cc1nc2scc(-c3ccccc3)c2c(=O)n1NC(=O)c1ccc(Cl)cc1`, the melting point is 235 to 236 °C.
For the compound `O=C(O)c1cncc(C#Cc2ccccc2)c1`, the melting point lay in the range of 245 to 247 °C.
`COc1ccccc1OP(=O)(Oc1ccccc1OC)Oc1ccccc1OC`: the melting point stood at 91 °C.
The compound `CC(C)(c1cc(Cl)c(O)c(Cl)c1)c1cc(Cl)c(O)c(Cl)c1` gave a melting point of 135 °C.
In turn, `Cc1ccc(C(=O)O)cc1F` gave a melting point of 170 to 175 °C.
The compound `N[C@H]1CCC[C@H]1C(=O)O` (relative stereo) yielded a melting point of 218 to 220 °C.
In turn, `C=C[Si](Cl)(Cl)Cl` registered a melting point of -95 °C.
In the case of `Nc1cc(C(F)(F)F)ccc1N1CCCC1`, the melting point is 33 to 35 °C.
In turn, `Cc1nc(C(=O)O)c(C)o1` displayed a melting point of 232 to 233 °C.
For the compound `CCC(Br)=CBr`, the melting point is -49.5 °C.
`Cc1nc(-c2ccc(Cl)cc2)sc1C(=O)O` yielded a melting point of 251 °C.
In the case of `O=C(Oc1ccccc1)c1cc2ccccc2cc1O`, the melting point lay within 128 to 133 °C.
Consider `COc1ccc(N2C(=O)C3ON=C(C(=O)c4ccc(C)cc4)C3C2=O)cc1` (configuration not stated), for which the melting point is 126 °C.
In the case of `Cc1cc2ncc(C(=O)O)c(C)n2n1` it was 250 to 251 °C.
In turn, `CC(=O)O[C@H](c1ccccc1)C(O)(c1ccccc1)c1ccccc1` came in with a melting point of 248 to 252 °C.
Take `CCC[C@H]1CCC[C@H]1C` (relative stereo): the melting point was -104 °C.
Turning to `Cc1cnc(N)c([N+](=O)[O-])c1`, the melting point is 190 to 195 °C.
The compound `O=C(O)C1(C(F)(F)F)CCCC1` registered a melting point of 37 °C.
Take `Brc1cccc(-c2cnco2)c1`: the melting point was in the range of 59 to 61 °C.
`Oc1c(Cl)cc(Cl)cc1Br` yielded a melting point of 68 °C.
For `CC(CC(N)C(=O)O)C(F)(F)F` (racemic), the melting point is 273 to 275 °C.
In the case of `Cc1nc(Cl)c2c(C)c(C)sc2n1` it was 115 to 116 °C.
Consider `CCOC(=O)C1=C(C)NC(=O)NC1c1ccc([N+](=O)[O-])cc1` (configuration not stated), for which the melting point came to 208 °C.
In the case of `O=C(C1CCNCC1)N1CCCC1` it was 45 to 47 °C; in that of `CC1=CC(C(=O)O)c2ccccc21` (configuration not stated), 139 °C.
As to `Nc1cc(Cl)cnc1Cl`, the melting point fell in the range of 124 to 125 °C.
In the case of `CCCCF`, the melting point is -134 °C.
Consider `COc1ccccc1OC`, for which the melting point was determined as 22.5 °C.
In the case of `O=C(C=Cc1ccccc1)C=Cc1ccccc1` it was 111 °C; in that of `N#Cc1ccc(N)cc1C#N`, 181 °C.
`NC(=S)Nc1ccc(Cl)cc1` gave a melting point of 177 to 181 °C.
In the case of `COC(=O)c1nn2ccccc2c1C(=O)OC` it was 72 to 74 °C.
Consider `CNCc1ccccc1`, for which the melting point was -24 °C.
In turn, `C1=CCc2ccccc2C1` gave a melting point of 25 °C.
Take `Cc1cc(C)c(N)c(C(=O)O)c1`: the melting point is 192 °C.
In the case of `COc1ccc(Br)c2c1C(=NNc1ccc([N+](=O)[O-])cc1[N+](=O)[O-])C2` it was 288 to 289 °C; in that of `CCCCCCCCCCCCCCCCCC(=O)OCCCCCCCCCCCCCCCC`, 57 °C; in that of `C[C@H](N)C(=O)N[C@@H](C)C(=O)O` (H-Ala-Ala-OH), 286 to 288 °C.
`O=[N+]([O-])c1ccc2cccnc2c1` showed a melting point of 132 °C.
`CC(C)S(=O)(=O)c1cnc(-c2cccnc2)nc1N` registered a melting point of 225 to 228 °C.
Regarding `O=C(Oc1c(F)c(F)c(F)c(F)c1F)c1cncnc1`, the melting point lay in the range of 121 to 124 °C.
In the case of `CCCCOCCOCCOCCCC` it was -60 °C.
In turn, `C=C(C)C(=O)OCCCC` had a melting point of -75 °C.
Turning to `Brc1c(Br)c(Br)c2c(c1Br)Oc1c(Br)c(Br)c(Br)c(Br)c1O2`, the melting point is 376 °C.
`O=C1NC(=O)C(=Cc2ccc(-c3ccccc3)o2)C(=O)N1`: the melting point worked out at 270 °C.
Regarding `CCCCCCCCCCOc1ccc(C=O)cc1OCCCCCCCCCC`, the melting point lay in the range of 61 to 66 °C.
Take `COc1ccc(C(=O)C=CC(=O)O)cc1`: the melting point was determined as 139 °C.
In turn, `Cc1ccc(C(C)CC(=O)C=Cc2ccccc2)cc1` (configuration not stated) showed a melting point of 88 °C.
For `Ic1cccc(CN2CCOCC2)c1`, the melting point fell in the range of 32 to 34 °C.
Take `O=C(c1ccccc1)c1ccc(Cl)c([N+](=O)[O-])c1`: the melting point was found to be 105 °C.
Compound `CCOC(=O)c1c(Nc2ccc(OC)cc2)sc2c(-c3ccc(Cl)cc3)c(C#N)c(N)nc12` showed a melting point of 220 to 224 °C.
In the case of `CCOC(=O)C1CC(=O)C(=C(O)C2CC2)C(=O)C1` (configuration not stated) it was 36 °C.
On to `CNC(=O)Cc1ccccc1`, for which the melting point is 55 to 59 °C.
`CCN(CC)C(N)=O` yielded a melting point of 66 to 71 °C.
In the case of `O=C1CCc2cccc3c2N1CC3` it was 112 °C; in that of `CC(=O)Nc1ccccc1C=Cc1cc(C=Cc2ccccc2NC(C)=O)c([N+](=O)[O-])cc1[N+](=O)[O-]`, 270 °C.
For `C(=Cc1ccccc1)CCC=Cc1ccccc1`, the melting point came to 82 °C.
Take `Cc1ccc([N+](=O)[O-])c(N)c1C`: the melting point was 117 to 122 °C.
`C=CC[C@H](NC(=O)OCC1c2ccccc2-c2ccccc21)C(=O)O` showed a melting point of 137 °C.
`O=[N+]([O-])c1ccc(I)c(Cl)c1` gave a melting point of 99 °C.
In the case of `Cc1cccc2ncccc12` it was 19 °C; in that of `O=C(O)CC[C@H](NC(=O)OCc1ccccc1)C(=O)O`, 118 to 121 °C; in that of `O=C(OC(Cl)(Cl)Cl)C(Cl)(Cl)Cl`, 34 °C.
In the case of `OCC(O)CN1CCN(c2ccccc2)CC1` (configuration not stated) it was 105 °C; in that of `CC(Oc1cc(Cl)c(Cl)cc1Cl)C(=O)O` (configuration not stated), 182 °C; in that of `CC(C)(C)OCC1CO1` (configuration not stated), -70 °C.
In the case of `Cc1cc([N+]([O-])=Nc2ccc(N=Nc3ccccc3)cc2)ccc1N=Nc1ccc(N=Nc2ccccc2)cc1` it was 193 °C; in that of `O=C1C(Cl)=C(Nc2ccccc2)C(=O)c2ccccc21`, 215 °C; in that of `O=S(=O)(Cl)c1cnc(Cl)c(Br)c1`, 68 °C.
For `Nc1nnc(-c2ccccc2)c(-c2ccccc2)n1`, the melting point was 177 to 179 °C.
With `CCCCOC(=O)c1ccccc1C(=O)OCCCC`, the melting point was -35 °C.
In the case of `CNC(=O)Oc1ccccc1C(C)C` it was 94 °C; in that of `NC(=O)c1cc(F)cc(F)c1`, 156 °C; in that of `N#CCc1c(F)cccc1Cl`, 42 °C.
`C1C2CC3CC1CC(SSC14CC5CC(CC(C5)C1)C4)(C2)C3` gave a melting point of 225 to 228 °C.
With `Cc1c(C(=O)O)cc(-c2ccccc2)n1CCCN1CCOCC1`, the melting point lay in the range of 172 to 177 °C.
In the case of `NC(CCC(=O)NC(CS)C(=O)NCC(=O)O)C(=O)O` (configuration not stated) it was 195 °C.
Regarding `CC(=O)N(C)c1ccccc1`, the melting point amounted to 103 °C.
Regarding `N#Cc1cccc(Cn2c(=O)oc3ccccc32)c1`, the melting point fell in the range of 170 to 172 °C.
In the case of `c1ccc2c(c1)c1cccc3c4c5ccccc5c5cccc(c2c13)c54`, the melting point stood at 305 °C.
For the compound `CC(C)(C)C(C)(C)O`, the melting point amounted to 17 °C.
`COC(=O)c1ccc(C(=O)OC)o1` yielded a melting point of 112 °C.
In the case of `COc1ccc(Br)c([N+](=O)[O-])c1` it was 31 °C.
The compound `COc1cc(OC)nc(NC(=O)NS(=O)(=O)c2cc(NC=O)ccc2C(=O)N(C)C)n1` registered a melting point of 194 °C.

Source of the values: a melting point compilation (Tetko et al.).
